{
  "source": "paper PMC10298657",
  "about": "“QbD-Optimized, Phospholipid-Based Elastic Nanovesicles for the Effective Delivery of 6-Gingerol: A Promising Topical Option for Pain-Related Disorders” (International Journal of Molecular Sciences, 2023)",
  "test": "ABTS radical scavenging activity",
  "assay_type": "biochemical",
  "conditions": "ABTS assay",
  "method": "The ability of the nanocarriers to scavenge the free radical ABTS was used to measure their antioxidant activity. To create an ABTS free radical, a stock solution of 7 mM ABTS was combined with 2.45 mM potassium persulfate and agitated in the dark for 12 h. […] Then, a standard solution (ascorbic acid) was mixed with the ABTS+ solution and incubated for 10 min in a 37 °C water bath. After that, various concentrations (10–100 µg/mL) of all samples were prepared in ethanol, 3 mL of the solution and 1 mL of the samples were combined, and the absorbance was measured at 734 nm using a UV spectrophotometer after 6 min [66]. Finally, the following equation was used to compute ABTS scavenging activity: Scavenging (%)=(Absorbance blank−Absorbance sample)/Absorbance blank×100",
  "data": [
    {"smiles": "CCCCC[C@H](O)CC(=O)CCc1ccc(O)c(OC)c1", "note": "[Formulation 6-G, 6-gingerol]", "values": [
      {"measurement": "Antioxidant activity (ABTS scavenging)", "result": "67.01 ± 1.11", "unit": "%"}
    ]},
    {"smiles": "O=C1O[C@H]([C@@H](O)CO)C(O)=C1O", "note": "[standard solution, ascorbic acid]", "values": [
      {"measurement": "Antioxidant activity (ABTS scavenging)", "result": "91.14 ± 0.24", "unit": "%"}
    ]}
  ]
}
